Measured values from publication PMC9726829, “Structures and mechanism of chitin synthase and its inhibition by antifungal drug Nikkomycin Z” (Cell Discovery, 2022).
One block for each molecule: values may come before it.

Assays:
S. cerevisiae Chs1 [1] = target: T1, S. cerevisiae Chs1 (Saccharomyces cerevisiae, UniProt P08004); experiment: in vitro chitin synthase activity assay; assay type: biochemical; settings: activator; UDP-GlcNAc as donor substrate
T1 construct: expressed and purified membrane protein, homodimer; residues numbered to 1131; residues 1-377, 699-703, 897-907, 1076-1084 not resolved
T1 sequence (P08004 1-1131): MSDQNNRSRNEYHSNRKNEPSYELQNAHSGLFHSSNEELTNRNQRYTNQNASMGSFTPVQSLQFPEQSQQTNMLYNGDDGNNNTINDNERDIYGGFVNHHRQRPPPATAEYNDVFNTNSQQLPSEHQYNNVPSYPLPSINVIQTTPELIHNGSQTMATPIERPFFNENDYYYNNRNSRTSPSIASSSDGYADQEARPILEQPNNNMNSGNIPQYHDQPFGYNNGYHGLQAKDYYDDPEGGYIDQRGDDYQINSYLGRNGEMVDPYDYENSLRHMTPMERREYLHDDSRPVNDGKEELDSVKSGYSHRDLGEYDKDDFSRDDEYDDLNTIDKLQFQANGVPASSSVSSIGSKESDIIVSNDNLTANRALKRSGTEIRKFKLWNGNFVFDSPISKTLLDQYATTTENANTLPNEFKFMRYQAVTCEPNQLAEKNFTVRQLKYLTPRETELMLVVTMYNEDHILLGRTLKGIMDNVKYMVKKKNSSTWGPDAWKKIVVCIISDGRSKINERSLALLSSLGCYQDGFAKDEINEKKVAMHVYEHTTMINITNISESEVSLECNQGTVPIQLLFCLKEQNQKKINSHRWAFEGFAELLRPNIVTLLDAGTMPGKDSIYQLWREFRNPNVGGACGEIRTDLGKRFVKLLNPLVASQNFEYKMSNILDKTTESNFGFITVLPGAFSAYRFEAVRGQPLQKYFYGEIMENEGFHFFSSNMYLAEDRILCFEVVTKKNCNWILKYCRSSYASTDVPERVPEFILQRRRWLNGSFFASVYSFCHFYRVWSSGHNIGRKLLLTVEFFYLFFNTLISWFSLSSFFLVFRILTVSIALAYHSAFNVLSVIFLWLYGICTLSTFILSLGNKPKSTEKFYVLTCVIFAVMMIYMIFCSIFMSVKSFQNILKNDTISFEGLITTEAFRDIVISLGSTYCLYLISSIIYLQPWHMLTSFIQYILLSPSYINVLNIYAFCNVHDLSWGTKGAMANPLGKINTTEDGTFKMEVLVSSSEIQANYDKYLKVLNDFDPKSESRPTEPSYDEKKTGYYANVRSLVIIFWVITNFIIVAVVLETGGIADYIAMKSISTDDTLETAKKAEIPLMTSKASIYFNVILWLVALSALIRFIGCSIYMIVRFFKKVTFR

S. cerevisiae Chs1 [2] = target: T1, S. cerevisiae Chs1; experiment: in vitro chitin synthase activity assay; cryo-EM structure of the complex at […] A also solved; assay type: biochemical
[3] = target: the molecule itself; experiment: cryo-EM structure; purified Chs1 in complex with Nikkomycin Z (NikZ), in detergent micelle; 2.9 Å, imposed C2 symmetry

Molecule: CC(=O)N[C@H]1C(O)O[C@H](CO)[C@@H](O)[C@@H]1O (stereo partly drawn) [N-acetylglucosamine]
in vitro chitin synthase activity assay (S. cerevisiae Chs1 [1]): Chs1 activity can be significantly stimulated by GlcNAc

IC50 (S. cerevisiae Chs1 [2]): 367 nM
Molecule: C[C@@H]([C@H](N)C(=O)N[C@H](C(=O)O)[C@H]1O[C@@H](n2ccc(=O)[nH]c2=O)[C@H](O)[C@@H]1O)[C@H](O)c1ccc(O)cn1 [Nikkomycin Z]

B1: S. cerevisiae chitin synthase Chs1 (enzyme)
chain: MSDQNNRSRNEYHSNRKNEPSYELQNAHSGLFHSSNEELTNRNQRYTNQNASMGSFTPVQSLQFPEQSQQTNMLYNGDDGNNNTINDNERDIYGGFVNHHRQRPPPATAEYNDVFNTNSQQLPSEHQYNNVPSYPLPSINVIQTTPELIHNGSQTMATPIERPFFNENDYYYNNRNSRTSPSIASSSDGYADQEARPILEQPNNNMNSGNIPQYHDQPFGYNNGYHGLQAKDYYDDPEGGYIDQRGDDYQINSYLGRNGEMVDPYDYENSLRHMTPMERREYLHDDSRPVNDGKEELDSVKSGYSHRDLGEYDKDDFSRDDEYDDLNTIDKLQFQANGVPASSSVSSIGSKESDIIVSNDNLTANRALKRSGTEIRKFKLWNGNFVFDSPISKTLLDQYATTTENANTLPNEFKFMRYQAVTCEPNQLAEKNFTVRQLKYLTPRETELMLVVTMYNEDHILLGRTLKGIMDNVKYMVKKKNSSTWGPDAWKKIVVCIISDGRSKINERSLALLSSLGCYQDGFAKDEINEKKVAMHVYEHTTMINITNISESEVSLECNQGTVPIQLLFCLKEQNQKKINSHRWAFEGFAELLRPNIVTLLDAGTMPGKDSIYQLWREFRNPNVGGACGEIRTDLGKRFVKLLNPLVASQNFEYKMSNILDKTTESNFGFITVLPGAFSAYRFEAVRGQPLQKYFYGEIMENEGFHFFSSNMYLAEDRILCFEVVTKKNCNWILKYCRSSYASTDVPERVPEFILQRRRWLNGSFFASVYSFCHFYRVWSSGHNIGRKLLLTVEFFYLFFNTLISWFSLSSFFLVFRILTVSIALAYHSAFNVLSVIFLWLYGICTLSTFILSLGNKPKSTEKFYVLTCVIFAVMMIYMIFCSIFMSVKSFQNILKNDTISFEGLITTEAFRDIVISLGSTYCLYLISSIIYLQPWHMLTSFIQYILLSPSYINVLNIYAFCNVHDLSWGTKGAMANPLGKINTTEDGTFKMEVLVSSSEIQANYDKYLKVLNDFDPKSESRPTEPSYDEKKTGYYANVRSLVIIFWVITNFIIVAVVLETGGIADYIAMKSISTDDTLETAKKAEIPLMTSKASIYFNVILWLVALSALIRFIGCSIYMIVRFFKKVTFR
notes: Chitin synthase 1 (Chs1) of S. cerevisiae; residues 1-377, 699-703, 897-907 and 1076-1084 are not resolved in the map; Homodimer; source: expressed and purified
stoichiometry N [3]: 2
